Test results from PMC12362587, “Untargeted Diversity-Oriented Synthesis for the Discovery of New Antitumor Agents: An Integrated Approach of Inverse Virtual Screening, Bioinformatics, and Omics for Target Deconvolution” (Journal of Medicinal Chemistry, 2025).
Values joined by “and” are separate entries in the source; they are usually repeats but may differ in a detail not shown here. Equal entries are not always repeated.

Assays:
[1] = test system: A375 cells; assay: Thioflavin T (ThT) protein misfolding assay; format: cell-based, human; details: 24 h, 31: 10, 5, 2.5 μM, 63: 20, 10, 5 μM
Method: Protein misfolding was analyzed using ThT, (Sigma-Aldrich, St. Louis, MO, USA) staining. A375 cells (5 × 10^3 cells/well) were grown in 96-well plates and allowed to adhere for 24 h. Later the medium was replaced, and cells were treated with compounds (31: 10, 5, and 2.5 μM; 63: 20, 10, and 5 μM), for 24 h. After treatments, the culture medium was replaced, cells washed twice with PBS and then suspended in 100 μL ThT (20 μM). After washing, a staining solution containing 20 μM ThT in PBS was added for 30 min at 37 °C in the dark. The stained cells were washed, and representative images were acquired using ZOE Fluorescent Cell Imaging System (Magnification, 20×). Quantitative analyses were performed reading the fluorescence signals (excitation/emission 450 nm/482 nm) using a PerkinElmer EnSpire multimode plate reader (PerkinElmer, Waltham, MA, USA).

[2] = molecular target: T1, PPARγ-Ligand Binding Domain (human recombinant) (Homo sapiens, UniProt P37231); assay: PPARγ-LBD Ligand Screening Assay Kit (Cayman); details: PPARγ-LBD probe displacement, top concentration 30 μM; read-out: EC50 or IC50, peroxisome proliferator-activated receptor gamma
T1 construct: purchased Cayman
T1 sequence (P37231 238-503 limits assumed): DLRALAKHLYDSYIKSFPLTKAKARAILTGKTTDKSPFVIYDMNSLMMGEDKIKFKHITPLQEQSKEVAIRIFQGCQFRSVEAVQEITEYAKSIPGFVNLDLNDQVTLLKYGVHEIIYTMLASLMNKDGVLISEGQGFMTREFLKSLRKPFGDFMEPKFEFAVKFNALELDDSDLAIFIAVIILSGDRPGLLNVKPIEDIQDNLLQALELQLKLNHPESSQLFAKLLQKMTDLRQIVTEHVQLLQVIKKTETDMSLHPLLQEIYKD
Method: The assay was performed in a volume of 50 μL in a 96-well plate. In the PPARγ-Ligand Binding Domain screening assay (Cayman, USA), a ligand of Peroxisome proliferator-activated receptor gamma (PPARγ) is conjugated to fluorescein and is used as a displacement probe. To evaluate the binding ability to the target, PPARγ-Ligand Binding Domain (human recombinant), PPARγ Probe – Green and the compounds were incubated in the dark for 1 h at room temperature. The compounds were added at different concentrations in the reaction buffer, starting from a final concentration of 30 μM. Buffer with the same amount of DMSO (1%) was used as a negative control. The fluorescence signals (excitation/emission, 490 nm/520 nm) were read using a PerkinElmer EnSpire multimode plate reader (PerkinElmer, Waltham, MA, USA). The experiments were performed in triplicate. The IC50 values were calculated using GraphPad Prism 8.0 software by nonlinear regression of dose–response inhibition.

[3] = molecular target: T2, A1 Human Adenosine GPCR (Homo sapiens, UniProt P30542); assay: Binding Agonist Radioligand LeadHunter Assay; details: Eurofins, read-out: EC50 or IC50, A1 Human Adenosine GPCR, agonist radioligand
T2 construct: Eurofins (contract assay)
T2 sequence (P30542 1-326): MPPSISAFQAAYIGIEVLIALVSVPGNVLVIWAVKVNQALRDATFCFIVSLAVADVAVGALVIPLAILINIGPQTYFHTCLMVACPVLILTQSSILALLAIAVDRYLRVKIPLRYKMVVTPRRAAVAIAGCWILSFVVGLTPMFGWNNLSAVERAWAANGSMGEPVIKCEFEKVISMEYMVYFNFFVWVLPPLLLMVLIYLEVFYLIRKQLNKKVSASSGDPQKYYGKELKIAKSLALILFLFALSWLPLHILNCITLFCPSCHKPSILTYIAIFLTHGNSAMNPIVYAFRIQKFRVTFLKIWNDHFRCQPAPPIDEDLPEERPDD
Source text: (§1) For displacement assays on G-protein coupled receptor 55 (GPR55), Vasopressin V2 receptor (V2R), Adenosine A1 receptor (A1AR), Fibroblast growth factor receptor 1 (FGFR1), Vascular endothelial growth factor receptor 2 (VEGFR2), Platelet-derived growth factor receptor beta (PDGFRB), Vascular endothelial growth factor receptor 1 (VEGFR1), Thromboxane Synthase (TXS) and Phosphodiesterase 10A (PDE10A), we commissioned the Eurofins company which employed its specific experimental methods, accessible at the link: https://www.eurofins.com/.

[4] = molecular target: T3, V2 Human Vasopressin/Oxytocin GPCR (Homo sapiens, UniProt P30518); assay: Binding Agonist Radioligand LeadHunter Assay; details: Eurofins, read-out: EC50 or IC50, V2 Human Vasopressin/Oxytocin GPCR
T3 construct: Eurofins (contract assay)
T3 sequence (P30518 whole entry): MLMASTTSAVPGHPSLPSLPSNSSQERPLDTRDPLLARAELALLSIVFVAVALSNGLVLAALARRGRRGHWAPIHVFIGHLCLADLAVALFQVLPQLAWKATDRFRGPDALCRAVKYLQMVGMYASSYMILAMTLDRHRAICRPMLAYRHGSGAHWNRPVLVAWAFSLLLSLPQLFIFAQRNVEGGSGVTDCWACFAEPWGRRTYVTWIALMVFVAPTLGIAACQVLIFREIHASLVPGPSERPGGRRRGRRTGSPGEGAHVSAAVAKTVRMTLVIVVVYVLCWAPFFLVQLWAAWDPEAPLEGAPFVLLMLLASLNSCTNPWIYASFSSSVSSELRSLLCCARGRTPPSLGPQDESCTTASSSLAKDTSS
Source text: as §1

[5] = molecular target: T4, G-protein coupled receptor 55 (Homo sapiens, UniProt Q9Y2T6); assay: Cell Based Agonist Arrestin LeadHunter Assay; details: Eurofins, read-out: EC50 or IC50, G-protein coupled receptor 55, agonist mode
T4 construct: Eurofins (contract assay)
T4 sequence (Q9Y2T6 whole entry): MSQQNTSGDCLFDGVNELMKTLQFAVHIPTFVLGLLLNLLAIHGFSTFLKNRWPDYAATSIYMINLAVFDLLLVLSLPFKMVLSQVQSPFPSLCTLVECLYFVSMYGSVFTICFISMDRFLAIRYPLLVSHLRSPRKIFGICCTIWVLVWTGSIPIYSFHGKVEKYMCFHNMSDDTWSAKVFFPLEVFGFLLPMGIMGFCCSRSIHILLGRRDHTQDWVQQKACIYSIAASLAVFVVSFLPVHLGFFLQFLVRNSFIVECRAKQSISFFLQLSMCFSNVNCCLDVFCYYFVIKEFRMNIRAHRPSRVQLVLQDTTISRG
Source text: as §1

[6] = molecular target: T5, protein-tyrosine kinase 6 (BRK) (Homo sapiens, UniProt Q13882); assay: BRK kinase assay (BPS Bioscience); format: biochemical; details: top concentration 30 μM, read-out: EC50 or IC50, protein-tyrosine kinase 6
T5 construct: purchased BPS Bioscience
T5 sequence (Q13882 whole entry): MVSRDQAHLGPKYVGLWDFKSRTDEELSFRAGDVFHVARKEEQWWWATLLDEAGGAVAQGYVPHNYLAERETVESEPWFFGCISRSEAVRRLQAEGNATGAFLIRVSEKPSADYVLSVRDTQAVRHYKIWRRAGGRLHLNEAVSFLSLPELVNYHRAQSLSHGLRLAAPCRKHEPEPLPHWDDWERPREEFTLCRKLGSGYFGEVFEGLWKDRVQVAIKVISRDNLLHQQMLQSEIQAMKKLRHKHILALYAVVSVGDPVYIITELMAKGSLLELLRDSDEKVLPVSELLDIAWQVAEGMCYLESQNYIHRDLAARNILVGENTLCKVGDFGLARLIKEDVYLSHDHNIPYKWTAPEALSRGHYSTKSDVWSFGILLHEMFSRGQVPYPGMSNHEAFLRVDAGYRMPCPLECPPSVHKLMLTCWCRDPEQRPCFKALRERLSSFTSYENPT
Method: The assay was performed in a volume of 50 μL in a 96-well white plate. […] For activity measurement, the kinase (final concentration, 10 ng per reaction), PTK (Poly-Glu, Tyr 4:1; BRK substrate), ATP (final concentration, 500 μM) and compounds were incubated for 45 min at 30 °C. The compounds were added at different concentrations in the reaction buffer, starting from a final concentration of 30 μM. Buffer with the same amount of DMSO (1%) was used as a negative control. After the incubation time, ADP-Glo Kinase detection reagent was added for 45 min at room temperature. The generated luminescent signal was read in end point mode using a PerkinElmer AlphaScreen multimodal plate reader (PerkinElmer, Waltham, MA, USA). Experiments were performed in triplicate. IC50 values were calculated with GraphPad Prism 8.0 software by nonlinear dose–response inhibition regression.

[7] = molecular target: human CB2R (Homo sapiens, UniProt P34972); assay: Competition binding assay, displacement of [3H]-CP-55,940; design: host or cells: HEK-293 membranes; details: displacement of [3H]-CP-55,940, HEK-293 membranes; read-out: EC50 or IC50, cannabinoid receptor 2
human CB2R, sequence (P34972 whole entry): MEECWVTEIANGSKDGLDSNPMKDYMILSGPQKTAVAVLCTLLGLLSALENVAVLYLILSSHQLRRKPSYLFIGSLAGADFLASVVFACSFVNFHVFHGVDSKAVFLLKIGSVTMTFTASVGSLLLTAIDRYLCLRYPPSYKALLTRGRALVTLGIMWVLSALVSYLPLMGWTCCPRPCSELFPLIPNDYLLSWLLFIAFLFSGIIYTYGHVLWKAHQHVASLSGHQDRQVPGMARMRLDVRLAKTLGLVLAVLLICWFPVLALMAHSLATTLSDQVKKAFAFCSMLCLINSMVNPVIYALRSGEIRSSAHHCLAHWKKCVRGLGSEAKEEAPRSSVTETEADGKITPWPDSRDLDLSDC
Method: Binding assays at equilibrium were conducted as described in Di Micco et al., 2024. […]. All compounds were evaluated following the manufacturer’s protocol (PerkinElmer distributed by Revvity, Italy). […] The K i values were calculated using the Cheng-Prusoff equation, based on the IC50 values obtained through GraphPad PRISM software (version 10.2.2). The results are expressed as K i (μM), represented as mean ± SEM, and reflect the average of three independent experiments performed in duplicate.

[8] = molecular target: T6, Thromboxane Synthase (Homo sapiens, UniProt P24557); assay: Enzymatic LeadHunter Assay; format: biochemical; details: Eurofins enzymatic; read-out: EC50 or IC50, Thromboxane Synthase
T6 construct: Eurofins (contract assay)
T6 sequence (P24557 whole entry): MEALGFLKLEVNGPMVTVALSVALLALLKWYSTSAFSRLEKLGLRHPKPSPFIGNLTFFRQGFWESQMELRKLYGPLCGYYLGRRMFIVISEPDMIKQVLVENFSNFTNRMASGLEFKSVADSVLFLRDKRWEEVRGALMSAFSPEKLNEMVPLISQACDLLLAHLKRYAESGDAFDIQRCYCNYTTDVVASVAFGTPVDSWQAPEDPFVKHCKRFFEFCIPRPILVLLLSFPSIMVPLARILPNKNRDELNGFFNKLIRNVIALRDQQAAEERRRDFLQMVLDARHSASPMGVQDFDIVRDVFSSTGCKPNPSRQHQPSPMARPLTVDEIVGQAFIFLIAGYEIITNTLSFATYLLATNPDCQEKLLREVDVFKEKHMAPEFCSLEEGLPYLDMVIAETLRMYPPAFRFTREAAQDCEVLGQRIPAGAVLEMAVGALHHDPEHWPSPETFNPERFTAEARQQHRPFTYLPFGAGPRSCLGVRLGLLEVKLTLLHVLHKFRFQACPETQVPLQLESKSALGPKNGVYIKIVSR
Source text: as §1

[9] = molecular target: T7, Phosphodiesterase 10A2 (Homo sapiens, UniProt Q9Y233); assay: Enzymatic LeadHunter Assay; format: biochemical; details: Eurofins enzymatic; read-out: EC50 or IC50, Phosphodiesterase 10A2
T7 construct: Eurofins (contract assay)
T7 sequence (Q9Y233 267-1055): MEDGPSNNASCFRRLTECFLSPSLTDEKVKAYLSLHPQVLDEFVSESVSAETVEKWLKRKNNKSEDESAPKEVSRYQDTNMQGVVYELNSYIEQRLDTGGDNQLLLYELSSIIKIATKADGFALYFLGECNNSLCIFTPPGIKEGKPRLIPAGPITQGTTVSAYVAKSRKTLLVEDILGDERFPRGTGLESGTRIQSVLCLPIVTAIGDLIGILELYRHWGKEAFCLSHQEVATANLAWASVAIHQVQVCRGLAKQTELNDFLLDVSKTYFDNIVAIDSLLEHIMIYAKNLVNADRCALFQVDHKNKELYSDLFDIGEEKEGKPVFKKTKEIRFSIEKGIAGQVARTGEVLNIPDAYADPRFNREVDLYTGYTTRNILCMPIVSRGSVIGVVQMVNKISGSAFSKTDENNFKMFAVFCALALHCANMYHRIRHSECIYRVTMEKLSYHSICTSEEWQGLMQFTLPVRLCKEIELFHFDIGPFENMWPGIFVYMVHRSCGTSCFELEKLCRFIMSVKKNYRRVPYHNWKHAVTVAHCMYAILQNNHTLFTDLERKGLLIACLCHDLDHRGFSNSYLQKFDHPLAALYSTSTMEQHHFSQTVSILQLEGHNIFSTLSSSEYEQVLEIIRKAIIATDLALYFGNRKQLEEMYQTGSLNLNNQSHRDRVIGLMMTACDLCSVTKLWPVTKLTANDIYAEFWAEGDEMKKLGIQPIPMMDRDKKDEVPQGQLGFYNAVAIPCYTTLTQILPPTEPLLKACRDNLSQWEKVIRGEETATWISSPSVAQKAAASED
Source text: as §1

[10] = molecular target: T8, BRD4(BD1) (Homo sapiens, UniProt O60885); assay: BRD4 (BD1) Inhibitor Screening Assay Kit (AlphaScreen); format: binding; details: read-out: EC50 or IC50, bromodomain-containing protein 4
T8 construct: purchased BPS Bioscience (printed as 'BSP') 32514
Method: Compounds were first tested in triplicate at a concentration of 10 μM, using (+)-JQ1 as reference compound.
After that, 10 μL of acceptor and donor beads (250-fold diluted) were added, protecting them from light. The results were measured 60 min later using the Enspire microplate analyzer (PerkinElmer, California, USA). Each compound was tested in triplicate, and GraphPad Prism (version 8.0) was used to analyze the data, employing the equation log­(inhibitor) vs normalized response-variable slope

Compound	misfolded protein levels (ThT fluorescence) [1]	IC50 [2] [µM]	IC50 [3] [µM]	IC50 [4] [µM]	EC50 [5] [µM]	IC50 [6] [µM]	IC50 [7]	IC50 [8] [µM]	IC50 [9] [µM]	IC50 [10] [µM]
CC(C)C[C@H]1C(=O)N(Cc2ccc(C(F)(F)F)cc2)c2ccccc2C(=O)N1Cc1ccc(C(F)(F)F)cc1 [Compound 31, (S)-3-Isobutyl-1,4-bis(4-(trifluoromethyl)benzyl)-3,4-dihydro-1H-benzo[e][1,4]diazepine-2,5-dione]	maximum accumulation of misfolded proteins even at 10 μM	> 30	≥ 30	≥ 30	≥ 30	19 ± 3.04	9.7 ± 0.67 µM	≥ 30	≥ 30	1.19 ± 0.29
CC(C)C[C@@H](C(=O)OCc1ccccc1)N1Cc2ccccc2NC1=O [Compound 63, Benzyl (S)-4-Methyl-2-(2-oxo-1,4-dihydroquinazolin-3(2H)-yl)pentanoate]	greatest increase in fluorescence at 20 μM	> 30	≥ 30	≥ 30	≥ 30	29.2 ± 4.53	6.9 µM and 6.91 µM	≥ 30	≥ 30	0.11 ± 0.09
